# Test results taken from patent publication US20210045385A1, “PYRIDAZINONE-SUBSTITUTED KETOXIMES AS HERBICIDES” (FMC Corporation, priority 2018, published 2021).
# Legend:
# Type in all cases: in vivo
# [1] = system: Italian ryegrass (Lolium mutiflorum); assay: Test C preemergence, visual plant response rating
# Outline: (§1)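 Visual injury on a 0 (no effect) to 100 (complete control) scale versus untreated controls, scored approximately 10 d after treatment under greenhouse conditions. Treatments used surfactant-containing non-phytotoxic solvent formulations, sprayed onto loam–sand soil preemergence or onto one- to two-leaf plants 2–10 cm tall postemergence.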
# [2] = system: barnyardgrass (Echinochloa crus-galli); assay: Test C preemergence, visual plant response rating
# Outline: as §1
# [3] = system: foxtail, giant (giant foxtail, Setaria faberi); assay: Test C preemergence, visual plant response rating
# Outline: as §1
# kochia (Bassia scoparia) [4] = assay: Test C preemergence, visual plant response rating
# Outline: as §1
# [5] = system: pigweed (Amaranthus retroflexus); assay: Test C preemergence, visual plant response rating
# Outline: as §1
# [6] = system: ragweed (common ragweed, Ambrosia artemisiifolia); assay: Test C preemergence, visual plant response rating
# Outline: as §1
# [7] = system: Italian ryegrass (Lolium mutiflorum); assay: Test C postemergence, visual plant response rating
# Outline: as §1
# [8] = system: barnyardgrass (Echinochloa crus-galli); assay: Test C postemergence, visual plant response rating
# Outline: as §1
# [9] = system: blackgrass (Alopecurus myosuroides); assay: Test C postemergence, visual plant response rating
# Outline: as §1
# corn (Zea mays) = assay: Test C postemergence, visual plant response rating
# Outline: as §1
# [10] = system: foxtail, giant (giant foxtail, Setaria faberi); assay: Test C postemergence, visual plant response rating
# Outline: as §1
# [11] = system: galium (catchweed bedstraw, Galium aparine); assay: Test C postemergence, visual plant response rating
# Outline: as §1
# kochia (Bassia scoparia) [12] = assay: Test C postemergence, visual plant response rating
# Outline: as §1
# [13] = system: pigweed (Amaranthus retroflexus); assay: Test C postemergence, visual plant response rating
# Outline: as §1
# [14] = system: ragweed (common ragweed, Ambrosia artemisiifolia); assay: Test C postemergence, visual plant response rating
# Outline: as §1
# [15] = system: wheat (Triticum aestivum); assay: Test C postemergence, visual plant response rating
# Outline: as §1
# [16] = system: barnyardgrass (Echinochloa crus-galli); assay: Test D flooded paddy test, visual plant response rating; conditions: 250 g ai/ha, scale 0 to 100 (0 no effect, 100 complete control), 13 to 15 d
# Outline: (§2)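 Visual injury scores, 0 (no effect) to 100 (complete control), were assigned after 13 to 15 d in the greenhouse by comparison with controls. Test compounds had been added to paddy water covering soil by 3 cm at the 2-leaf stage.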
# [17] = system: duck salad (Heteranthera limosa); assay: as above; conditions: 250 g ai/ha, scale 0 to 100 (0 no effect, 100 complete control), 13 to 15 d
# Outline: as §2
# rice (Oryza sativa) = assay: as above; conditions: 250 g ai/ha, scale 0 to 100 (0 no effect, 100 complete control), 13 to 15 d
# Outline: as §2
# [18] = system: sedge umbrella (small-flower umbrella sedge, Cyperus difformis); assay: as above; conditions: 250 g ai/ha, scale 0 to 100 (0 no effect, 100 complete control), 13 to 15 d
# Outline: as §2
# [19] = Test C, 31 g ai/ha, 0 is no effect, 100 is complete control
# [20] = Test C, 125 g ai/ha, 0 is no effect, 100 is complete control
# [21] = Test C, postemergence, 125 g ai/ha
# [22] = Test C, postemergence, 1000 g ai/ha
compound,measurement,setting,value
CO/N=C(\c1ccc(F)c(Cl)c1)c1c(O)c(C)nn(C)c1=O [Compound 219],"Ryegrass, Italian plant response rating (0 to 100 scale)",[1]; [19],0
same,"Ryegrass, Italian plant response rating (0 to 100 scale)",[1]; [20],0
same,Barnyardgrass plant response rating (0 to 100 scale),[2]; [19],0
same,Barnyardgrass plant response rating (0 to 100 scale),[2]; [20],0
same,"Foxtail, Giant plant response rating (0 to 100 scale)",[3]; [19],0
same,"Foxtail, Giant plant response rating (0 to 100 scale)",[3]; [20],0
same,Kochia plant response rating (0 to 100 scale),kochia (Bassia scoparia) [4]; [19],0
same,Kochia plant response rating (0 to 100 scale),kochia (Bassia scoparia) [4]; [20],0
same,Pigweed plant response rating (0 to 100 scale),[5]; [19],0
same,Pigweed plant response rating (0 to 100 scale),[5]; [20],10
same,Ragweed plant response rating (0 to 100 scale),[6]; [19],0
same,Ragweed plant response rating (0 to 100 scale),[6]; [20],0
same,"Ryegrass, Italian plant response rating (0 to 100 scale)","[7]; Postemergence, 31 g ai/ha",0
same,"Ryegrass, Italian plant response rating (0 to 100 scale)",[7]; [21],40
same,Barnyardgrass plant response rating (0 to 100 scale),"[8]; Postemergence, 31 g ai/ha",20
same,Barnyardgrass plant response rating (0 to 100 scale),[8]; [21],30
same,Blackgrass plant response rating (0 to 100 scale),"[9]; Postemergence, 31 g ai/ha",0
same,Blackgrass plant response rating (0 to 100 scale),[9]; [21],0
same,Corn plant response rating (0 to 100 scale),"corn (Zea mays); Postemergence, 31 g ai/ha",0
same,Corn plant response rating (0 to 100 scale),corn (Zea mays); [21],0
same,"Foxtail, Giant plant response rating (0 to 100 scale)","[10]; Postemergence, 31 g ai/ha",0
same,"Foxtail, Giant plant response rating (0 to 100 scale)",[10]; [21],0
same,Galium plant response rating (0 to 100 scale),"[11]; Postemergence, 31 g ai/ha",50
same,Galium plant response rating (0 to 100 scale),[11]; [21],60
same,Kochia plant response rating (0 to 100 scale),"kochia (Bassia scoparia) [12]; Postemergence, 31 g ai/ha",10
same,Kochia plant response rating (0 to 100 scale),kochia (Bassia scoparia) [12]; [21],50
same,Pigweed plant response rating (0 to 100 scale),"[13]; Postemergence, 31 g ai/ha",20
same,Pigweed plant response rating (0 to 100 scale),[13]; [21],40
same,Ragweed plant response rating (0 to 100 scale),"[14]; Postemergence, 31 g ai/ha",0
same,Ragweed plant response rating (0 to 100 scale),[14]; [21],10
same,Wheat plant response rating (0 to 100 scale),"[15]; Postemergence, 31 g ai/ha",0
same,Wheat plant response rating (0 to 100 scale),[15]; [21],0
same,"Plant response rating, Barnyardgrass (Flood)",[16],0
same,"Plant response rating, Ducksalad (Flood)",[17],0
same,"Plant response rating, Rice (Flood)",rice (Oryza sativa),0
same,"Plant response rating, Sedge, Umbrella (Flood)",[18],0
C#CCO/N=C(/c1c(O)cnn(C)c1=O)c1cccc2ccccc12 [Compound 221],"Ryegrass, Italian plant response rating (0 to 100 scale)",[1]; 1000 g ai/ha,100
same,Barnyardgrass plant response rating (0 to 100 scale),[2]; 1000 g ai/ha,30
same,"Foxtail, Giant plant response rating (0 to 100 scale)",[3]; 1000 g ai/ha,100
same,Kochia plant response rating (0 to 100 scale),kochia (Bassia scoparia) [4]; 1000 g ai/ha,60
same,Pigweed plant response rating (0 to 100 scale),[5]; 1000 g ai/ha,100
same,Ragweed plant response rating (0 to 100 scale),[6]; 1000 g ai/ha,80
same,"Ryegrass, Italian plant response rating (0 to 100 scale)",[7]; [22],100
same,Barnyardgrass plant response rating (0 to 100 scale),[8]; [22],70
same,Blackgrass plant response rating (0 to 100 scale),[9]; [22],90
same,Corn plant response rating (0 to 100 scale),corn (Zea mays); [22],20
same,"Foxtail, Giant plant response rating (0 to 100 scale)",[10]; [22],60
same,Galium plant response rating (0 to 100 scale),[11]; [22],100
same,Kochia plant response rating (0 to 100 scale),kochia (Bassia scoparia) [12]; [22],70
same,Pigweed plant response rating (0 to 100 scale),[13]; [22],90
same,Ragweed plant response rating (0 to 100 scale),[14]; [22],80
same,Wheat plant response rating (0 to 100 scale),[15]; [22],60
same,"Plant response rating, Barnyardgrass (Flood)",[16],0
same,"Plant response rating, Ducksalad (Flood)",[17],0
same,"Plant response rating, Rice (Flood)",rice (Oryza sativa),0
same,"Plant response rating, Sedge, Umbrella (Flood)",[18],0
CC(C)O/N=C(\c1c(O)cnn(C)c1=O)c1cccc2ccccc12 [Compound 222],"Ryegrass, Italian plant response rating (0 to 100 scale)",[1]; 1000 g ai/ha,0
same,Barnyardgrass plant response rating (0 to 100 scale),[2]; 1000 g ai/ha,0
same,"Foxtail, Giant plant response rating (0 to 100 scale)",[3]; 1000 g ai/ha,50
same,Kochia plant response rating (0 to 100 scale),kochia (Bassia scoparia) [4]; 1000 g ai/ha,0
same,Pigweed plant response rating (0 to 100 scale),[5]; 1000 g ai/ha,100
same,Ragweed plant response rating (0 to 100 scale),[6]; 1000 g ai/ha,50
same,"Ryegrass, Italian plant response rating (0 to 100 scale)",[7]; [22],0
same,Barnyardgrass plant response rating (0 to 100 scale),[8]; [22],10
same,Blackgrass plant response rating (0 to 100 scale),[9]; [22],0
same,Corn plant response rating (0 to 100 scale),corn (Zea mays); [22],0
same,"Foxtail, Giant plant response rating (0 to 100 scale)",[10]; [22],20
same,Galium plant response rating (0 to 100 scale),[11]; [22],90
same,Kochia plant response rating (0 to 100 scale),kochia (Bassia scoparia) [12]; [22],0
same,Pigweed plant response rating (0 to 100 scale),[13]; [22],90
same,Ragweed plant response rating (0 to 100 scale),[14]; [22],50
same,Wheat plant response rating (0 to 100 scale),[15]; [22],0
same,"Plant response rating, Barnyardgrass (Flood)",[16],0
same,"Plant response rating, Ducksalad (Flood)",[17],0
same,"Plant response rating, Rice (Flood)",rice (Oryza sativa),0
same,"Plant response rating, Sedge, Umbrella (Flood)",[18],0
